Target: PDGFβ (Homo sapiens (Human), UniProt P09619)
Assay: PDGF stimulated Ca2+ signal in vitro (FLIPR, NHDF-Ad); PDGFβ cellular
Type: cell-based
Conditions: PDGF 10 ng/mL, amide linker compounds
Experimental: Automated FLIPR (Fluorometric Imaging Plate Reader) technology was used to screen for inhibitors of PDGF induced increases in intracellular calcium levels in fluorescent dye loaded […] cells. NHDF-Ad (Normal human dermal fibroblasts) (Lonza) were seeded in 384-well fibronectin coated black-walled plates overnight at 37° C./5% CO2. […] Cells were washed 4 times (ELx405-CW, Bio-Tek) to remove extracellular dye.

PDGFβ, sequence (P09619 33-1106): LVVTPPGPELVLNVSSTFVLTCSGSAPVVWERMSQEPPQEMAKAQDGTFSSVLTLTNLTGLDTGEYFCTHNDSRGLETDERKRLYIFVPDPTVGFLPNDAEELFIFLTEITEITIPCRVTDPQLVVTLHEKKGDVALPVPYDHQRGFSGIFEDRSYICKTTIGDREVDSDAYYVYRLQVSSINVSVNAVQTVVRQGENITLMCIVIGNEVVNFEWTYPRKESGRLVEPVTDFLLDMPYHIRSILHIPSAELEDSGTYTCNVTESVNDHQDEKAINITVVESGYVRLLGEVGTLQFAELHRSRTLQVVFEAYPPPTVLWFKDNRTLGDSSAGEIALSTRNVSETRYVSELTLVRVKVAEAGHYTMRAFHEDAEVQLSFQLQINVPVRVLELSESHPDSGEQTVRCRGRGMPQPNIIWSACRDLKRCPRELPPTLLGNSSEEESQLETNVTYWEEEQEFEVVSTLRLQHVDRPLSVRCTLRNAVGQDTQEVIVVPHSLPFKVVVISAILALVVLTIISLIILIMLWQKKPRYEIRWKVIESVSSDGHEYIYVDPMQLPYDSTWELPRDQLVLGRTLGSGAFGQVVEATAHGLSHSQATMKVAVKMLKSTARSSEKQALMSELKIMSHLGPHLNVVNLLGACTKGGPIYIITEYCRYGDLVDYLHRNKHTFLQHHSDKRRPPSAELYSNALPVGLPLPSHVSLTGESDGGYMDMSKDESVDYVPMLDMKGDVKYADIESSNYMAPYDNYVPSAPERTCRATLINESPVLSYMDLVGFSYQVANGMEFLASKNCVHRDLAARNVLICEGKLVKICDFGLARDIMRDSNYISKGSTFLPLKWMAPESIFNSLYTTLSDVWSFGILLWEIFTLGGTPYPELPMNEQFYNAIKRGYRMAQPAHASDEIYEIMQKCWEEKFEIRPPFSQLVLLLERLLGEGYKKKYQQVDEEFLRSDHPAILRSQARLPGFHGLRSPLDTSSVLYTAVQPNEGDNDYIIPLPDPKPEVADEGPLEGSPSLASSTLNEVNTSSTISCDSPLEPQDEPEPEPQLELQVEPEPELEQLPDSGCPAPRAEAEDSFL

2,3-dihydroxypropyl 5-(4-{3-[(3-methyl-2-furoyl)amino]phenoxy}pyridin-2-yl)-1H-pyrrole-3-carboxylate [Example 21]
IC50: 39 nM

— patent publication US9725433B2, “Compounds as tyrosine kinase modulators” (Allergan, Inc., priority 2009, dated 2017)
